Results from PMC6010013, “Synthesis, physiochemical property and antimicrobial activity of novel quaternary ammonium salts” (Journal of Enzyme Inhibition and Medicinal Chemistry, 2017).

What was measured:
Assay type in all cases: cell-based
[1] = test system: S. aureus; experiment: MBC, agar plating of dilutions without growth; conditions: Staphylococcus aureus, 99.9% bactericidal, read-out: Minimal bactericidal concentration (MBC)
Source text: (§1) In this paper, antimicrobial activities of 24 QASs were detected by quantitative tests. […] Benzalkonium chloride (BZK) and chlorhexidine acetate (CA) was selected as positive controls. Representative compound POT-C12QAS (2) which synthesised and evaluated in previous work was also taken as a reference compound in MIC, MBC and cytotoxicity tests. […]
(§2) agriculture were used as target pathogens in this study, including three strains of Gram-positive bacteria (S. Aureus, α-H-tococcus, β-H-tococcus), three strains of Gram-negative bacteria (E. coli, P. aeruginosa, Proteus vulgaris) and four strains of fungi (Canidia albicans, Cytospora mandshurica, Physalospora piricola, Aspergillus niger). The antimicrobial tests were assayed, according to standard CLSI methods for antimicrobial dilution susceptibility tests to measure the minimum inhibitory concentration (MIC) and minimum bactericidal concentration (MBC)2.
(§3) A broth tube dilution method was followed to determine the MIC values for all the screened compounds against the micro-organisms, and for comparison benzalkonium chloride (BZK) and chlorhexidine acetate (CA) was used as a reference. For sample preparation, each of the test compounds and reference were dissolved in DMSO or sterile water at a concentration of 1600 μg/mL, and further dilutions of the compounds and reference in culture medium MHB (Muller-Hinton Broth) were prepared at the required quantities of 400, 200, 100 etc., down to 0.39 μg/mL. Bacterial strains and fungal strains were maintained on MHA (Muller-Hinton Agar) medium at 37℃ or 28 ℃ for 12 h or 72h, respectively. The microbial inocula were prepared by suspension in 10 mL of culture medium for colonies from culture on MHA. The cell density of each inoculum was adjusted in culture medium of a 0.5 McFarland standard (1-2×10^8 CFU/mL). The final amount applied was 10^5 CFU/mL for bacteria and fungi. The microbial inocula were added to the twofold diluted samples. One growth control tube was prepared […] the addition of the compound and one blank tube was prepared without the addition of the microorganism. MIC values were read after incubation at 37℃ or 28 ℃ for bacterial and fungal strains, respectively. After 12 h or 72h, the last tube with no growth of micro-organisms was recorded to represent the MIC value expressed in μg/ml. All experiments were carried out three times. […]
(§4) was placed on agar plates in triplicate, and incubated at 37℃ or 28 ℃ for 12 h or 72h. The number of colonies on each plate was read, and the MBC was determined as the lowest concentration that achieved a 99.9% bactericidal in the agar plate.

[2] = test system: α-H-tococcus; experiment: MBC, agar plating of dilutions without growth; conditions: 99.9% bactericidal, read-out: Minimal bactericidal concentration (MBC)
Source text: as §1, §2, §3, §4

[3] = test system: P. aeruginosa; experiment: MBC, agar plating of dilutions without growth; conditions: Pseudomonas aeruginosa, 99.9% bactericidal, read-out: Minimal bactericidal concentration (MBC)
Source text: as §1, §2, §3, §4

[4] = test system: Proteus vulgaris; experiment: MBC, agar plating of dilutions without growth; conditions: 99.9% bactericidal, read-out: Minimal bactericidal concentration (MBC)
Source text: as §1, §2, §3, §4

[5] = test system: Canidia albicans; experiment: MBC, agar plating of dilutions without growth; conditions: 99.9% bactericidal, read-out: Minimal bactericidal concentration (MBC)
Source text: as §1, §2, §3, §4

[6] = test system: E. coli; experiment: MBC, agar plating of dilutions without growth; conditions: Escherichia coli, 99.9% bactericidal, read-out: Minimal bactericidal concentration (MBC)
Source text: as §1, §2, §3, §4

[7] = test system: Physalospora piricola; experiment: MBC, agar plating of dilutions without growth; conditions: 99.9% bactericidal, read-out: Minimal bactericidal concentration (MBC)
Source text: as §1, §2, §3, §4

[8] = test system: Cytospora mandshurica; experiment: MBC, agar plating of dilutions without growth; conditions: Cytospora, 99.9% bactericidal, read-out: Minimal bactericidal concentration (MBC)
Source text: as §1, §2, §3, §4

[9] = test system: Aspergillus niger; experiment: MBC, agar plating of dilutions without growth; conditions: 99.9% bactericidal, read-out: Minimal bactericidal concentration (MBC)
Source text: as §1, §2, §3, §4

[10] = Haemolysis assay; conditions: human red blood cells (erythrocyte suspension), 1 h at 37 ℃, read-out: Haemolysis rate; for hemolysis at 1 h, 12.5 μg/mL: 12.50 μg/mL
Description: The surfactant may be absorbed and penetrate to the cell membrane, where it makes osmotic phenomena by altering the permeability of membrane, which in turn causes the cellular lysis. Haemolysis assay gives quantitative estimation about haemoglobin release when red blood cells are treated with QASs. Haemolytic assay of QASs at different concentration was carried out in Table 4. […] For 5a-b, 6a-b, 10a-c, 13a-b, and 16a-d, their safe concentration can more than 100 μg/mL. Compared with BZK and CA, all QASs were safe to be used when they circulated into the blood in low concentration. […]
The human blood from healthy individual was collected in a tube containing heparin, and the blood was centrifuged at 1500 rpm for 3 min. The […] (Erythrocyte) was collected and plasma was discarded and further washed five times with sterile normal saline solution. Then the cells were diluted to 0.2% of their volume with normal saline solution. 2 mL of the diluted red blood cells suspension was mixed with (a) 2 mL of normal salinesolution as a negative control; (b) 2 mL of distilled water as a positive control; (c) 2 mL of QAS solution which were dispersed into normal saline solution at the different concentrations ranging from 3.125 to 400 μg/mL. Then the mixtures were shaken well and incubated for 1 h at 37 ℃. Finally, the mixtures were centrifuged for 5min at 2000 r/min and the absorbances of supernatant at 540 nm was measured by a microplate reader (Multiskan MK3-Thermo Labsystems, USA). The hemolysis ratio was calculated as follows: The hemolysis ratio(%) = (OD Sample−OD Negative)/(OD Positive −OD Negative) ×100%. The hemolysis evaluation of QASs was performed in triplicate and results were expressed as the mean ± SD.

SMILES: C[N+](CCO)(CCO)CCCCCCSc1nnc(-c2ccc(F)cc2)o1 [Compound 5a]
- MBC [1]: 100 µg/mL
- MBC [2]: 50 µg/mL
- MBC [3]: 100 µg/mL
- MBC [4]: 100 µg/mL
- MBC [5]: 50 µg/mL
- MBC [6]: 100 µg/mL
- MBC [7]: 12.5 µg/mL
- MBC [8]: 50 µg/mL
- MBC [9]: 50 µg/mL
- hemolysis at 1 h, 6.25 μg/mL [10]: 0.21 ± 0.03%
- hemolysis at 1 h, 12.5 μg/mL [10]: 0.53 ± 0.15%
- hemolysis at 1 h, 25 μg/mL [10]: 1.37 ± 0.87%
- hemolysis at 1 h, 50 μg/mL [10]: 1.54 ± 0.96%
- hemolysis at 1 h, 100 μg/mL [10]: 3.25 ± 1.23%
- hemolysis at 1 h, 200 μg/mL [10]: 6.21 ± 3.21%
- hemolysis at 1 h, 400 μg/mL [10]: 35.6 ± 4.87%

SMILES: C[N+](CCO)(CCO)CCCCCCCCCCCCSc1nnc(-c2ccccc2)o1 [Compound 2, reference compound]
- MBC [1]: 12.5 µg/mL
- MBC [2]: 6.25 µg/mL
- MBC [3]: 25 µg/mL
- MBC [4]: 50 µg/mL
- MBC [5]: 12.5 µg/mL
- MBC [6]: 50 µg/mL
- MBC [7]: 3.12 µg/mL
- MBC [8]: 6.25 µg/mL
- MBC [9]: 3.12 µg/mL
- hemolysis at 1 h, 6.25 μg/mL [10]: 0.18 ± 0.05%
- hemolysis at 1 h, 12.5 μg/mL [10]: 0.42 ± 0.13%
- hemolysis at 1 h, 25 μg/mL [10]: 0.93 ± 0.41%
- hemolysis at 1 h, 50 μg/mL [10]: 4.11 ± 0.89%
- hemolysis at 1 h, 100 μg/mL [10]: 17.1 ± 2.34%
- hemolysis at 1 h, 200 μg/mL [10]: 82.8 ± 3.18%
- hemolysis at 1 h, 400 μg/mL [10]: 90.6 ± 4.23%

SMILES: C[N+](CCO)(CCO)CCCCCCCCCCSc1nnc(-c2ccc(C(F)(F)F)cc2)o1.[Br-] [Compound 6c]
- MBC [1]: 25 µg/mL
- MBC [2]: 12.5 µg/mL
- MBC [3]: 50 µg/mL
- MBC [4]: 25 µg/mL
- MBC [5]: 25 µg/mL
- MBC [6]: 25 µg/mL
- MBC [7]: 3.12 µg/mL
- MBC [8]: 12.5 µg/mL
- MBC [9]: 12.5 µg/mL
- hemolysis at 1 h, 6.25 μg/mL [10]: 0.57 ± 0.15%
- hemolysis at 1 h, 12.5 μg/mL [10]: 0.42 ± 0.13%
- hemolysis at 1 h, 25 μg/mL [10]: 0.67 ± 0.13%
- hemolysis at 1 h, 50 μg/mL [10]: 3.56 ± 1.32%
- hemolysis at 1 h, 100 μg/mL [10]: 35.8 ± 5.1%
- hemolysis at 1 h, 200 μg/mL [10]: 82.5 ± 6.12%
- hemolysis at 1 h, 400 μg/mL [10]: 89.4 ± 4.35%
